Measured values published in the supplement of paper PMC10883282.
± gives the standard deviation of the averaged measurements.

Key:
Experiment in all cases: relative viability vs DMSO control (72 h) (fraction); higher = more viable cells
[1] = tested on: HT1080
Outline: (§1)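 Relative viability is percent growth read by ATPLite and averaged over up to triplicate wells. Sarcoma cells were seeded in 384-well plates to reach 80–90% confluence and given 2.5 µl of serially diluted compound after 24 h, from source plates of 10 mM to 0.0002 mM. Incubation lasted 72 h at 37 °C, 5% CO2, with 0.1% DMSO vehicle and a 5 µM positive control, and the data were rescaled so 1 equals full and 0 equals none.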

[2] = tested on: G401
Outline: as §1

[3] = tested on: SW872
Outline: as §1

[4] = tested on: KHOS-NP
Outline: as §1

[5] = tested on: HS729
Outline: as §1

[6] = tested on: VA-ES-BJ
Outline: as §1

[7] = tested on: MES-SA
Outline: as §1

[8] = tested on: SYO-1
Outline: as §1

[9] = tested on: SW1353
Outline: as §1

[10] = tested on: SK-LMS-1
Outline: as §1

[11] = tested on: A204
Outline: as §1

[12] = tested on: SW684
Outline: as §1

SMILES: CC(C)(O)CNc1nc(Nc2ccnc(C(F)(F)F)c2)nc(-c2cccc(C(F)(F)F)n2)n1 [Enasidenib]
- relative viability ([1]; 0.00017 µM): 1.07 ± 0.02
- relative viability ([1]; 0.00051 µM): 1.076 ± 0.0082
- relative viability ([1]; 0.00152 µM): 1.08 ± 0.047
- relative viability ([1]; 0.00457 µM): 1.07 ± 0.021
- relative viability ([1]; 0.01372 µM): 1.042 ± 0.0035
- relative viability ([1]; 0.04115 µM): 1.064 ± 0.0088
- relative viability ([1]; 0.1235 µM): 1.05 ± 0.035
- relative viability ([1]; 0.3704 µM): 1.1 ± 0.027
- relative viability ([1]; 1.111 µM): 1.16 ± 0.068
- relative viability ([1]; 3.333 µM): 1.11 ± 0.033
- relative viability ([1]; 10 µM): 0.978 ± 0.01
- relative viability ([2]; 0.00017 µM): 0.984 ± 0.029
- relative viability ([2]; 0.00051 µM): 0.973 ± 0.062
- relative viability ([2]; 0.00152 µM): 0.984 ± 0.12
- relative viability ([2]; 0.00457 µM): 1.03 ± 0.031
- relative viability ([2]; 0.01372 µM): 1.025 ± 0.0068
- relative viability ([2]; 0.04115 µM): 1.01 ± 0.0082
- relative viability ([2]; 0.1235 µM): 1.05 ± 0.023
- relative viability ([2]; 0.3704 µM): 1.02 ± 0.049
- relative viability ([2]; 1.111 µM): 0.98 ± 0.011
- relative viability ([2]; 3.333 µM): 0.994 ± 0.023
- relative viability ([2]; 10 µM): 0.958 ± 0.055
- relative viability ([3]; 0.00017 µM): 1.04 ± 0.033
- relative viability ([3]; 0.00051 µM): 1.07 ± 0.032
- relative viability ([3]; 0.00152 µM): 1.08 ± 0.021
- relative viability ([3]; 0.00457 µM): 1.07 ± 0.016
- relative viability ([3]; 0.01372 µM): 1.08 ± 0.029
- relative viability ([3]; 0.04115 µM): 1.06 ± 0.036
- relative viability ([3]; 0.1235 µM): 1.06 ± 0.02
- relative viability ([3]; 0.3704 µM): 1.068 ± 0.0059
- relative viability ([3]; 1.111 µM): 1.07 ± 0.0047
- relative viability ([3]; 3.333 µM): 1.07 ± 0.012
- relative viability ([3]; 10 µM): 1.06 ± 0.021
- relative viability ([4]; 0.00017 µM): 1.09 ± 0.014
- relative viability ([4]; 0.00051 µM): 1.1 ± 0.021
- relative viability ([4]; 0.00152 µM): 1.091 ± 0.0079
- relative viability ([4]; 0.00457 µM): 1.09 ± 0.024
- relative viability ([4]; 0.01372 µM): 1.08 ± 0.019
- relative viability ([4]; 0.04115 µM): 1.08 ± 0.033
- relative viability ([4]; 0.1235 µM): 1.08 ± 0.046
- relative viability ([4]; 0.3704 µM): 1.06 ± 0.03
- relative viability ([4]; 1.111 µM): 1.04 ± 0.03
- relative viability ([4]; 3.333 µM): 1.06 ± 0.044
- relative viability ([4]; 10 µM): 1.05 ± 0.021
- relative viability ([5]; 0.00017 µM): 0.966 ± 0.013
- relative viability ([5]; 0.00051 µM): 0.974 ± 0.025
- relative viability ([5]; 0.00152 µM): 0.995 ± 0.019
- relative viability ([5]; 0.00457 µM): 1 ± 0.035
- relative viability ([5]; 0.01372 µM): 1.002 ± 0.0059
- relative viability ([5]; 0.04115 µM): 0.985 ± 0.061
- relative viability ([5]; 0.1235 µM): 1.02 ± 0.011
- relative viability ([5]; 0.3704 µM): 0.941 ± 0.022
- relative viability ([5]; 1.111 µM): 0.994 ± 0.022
- relative viability ([5]; 3.333 µM): 1.01 ± 0.031
- relative viability ([5]; 10 µM): 0.928 ± 0.043
- relative viability ([6]; 0.00017 µM): 1.04 ± 0.021
- relative viability ([6]; 0.00051 µM): 1.06 ± 0.025
- relative viability ([6]; 0.00152 µM): 1.05 ± 0.036
- relative viability ([6]; 0.00457 µM): 1.03 ± 0.04
- relative viability ([6]; 0.01372 µM): 1.06 ± 0.04
- relative viability ([6]; 0.04115 µM): 1.05 ± 0.043
- relative viability ([6]; 0.1235 µM): 1.06 ± 0.038
- relative viability ([6]; 0.3704 µM): 1.07 ± 0.051
- relative viability ([6]; 1.111 µM): 1.05 ± 0.033
- relative viability ([6]; 3.333 µM): 1.02 ± 0.025
- relative viability ([6]; 10 µM): 0.976 ± 0.031
- relative viability ([7]; 0.00017 µM): 0.911 ± 0.012
- relative viability ([7]; 0.00051 µM): 0.947 ± 0.03
- relative viability ([7]; 0.00152 µM): 0.958 ± 0.024
- relative viability ([7]; 0.00457 µM): 0.956 ± 0.026
- relative viability ([7]; 0.01372 µM): 0.9539 ± 0.0027
- relative viability ([7]; 0.04115 µM): 0.932 ± 0.033
- relative viability ([7]; 0.1235 µM): 0.9612 ± 0.0088
- relative viability ([7]; 0.3704 µM): 0.945 ± 0.029
- relative viability ([7]; 1.111 µM): 0.926 ± 0.03
- relative viability ([7]; 3.333 µM): 0.918 ± 0.0091
- relative viability ([7]; 10 µM): 0.808 ± 0.024
- relative viability ([8]; 0.00017 µM): 0.969 ± 0.075
- relative viability ([8]; 0.00051 µM): 0.959 ± 0.05
- relative viability ([8]; 0.00152 µM): 0.987 ± 0.067
- relative viability ([8]; 0.00457 µM): 0.982 ± 0.026
- relative viability ([8]; 0.01372 µM): 0.973 ± 0.043
- relative viability ([8]; 0.04115 µM): 0.992 ± 0.066
- relative viability ([8]; 0.1235 µM): 0.996 ± 0.056
- relative viability ([8]; 0.3704 µM): 0.979 ± 0.059
- relative viability ([8]; 1.111 µM): 0.624 ± 0.61
- relative viability ([8]; 3.333 µM): 0.968 ± 0.096
- relative viability ([8]; 10 µM): 0.828 ± 0.031
- relative viability ([9]; 0.00017 µM): 0.997 ± 0.016
- relative viability ([9]; 0.00051 µM): 1.03 ± 0.016
- relative viability ([9]; 0.00152 µM): 0.99 ± 0.031
- relative viability ([9]; 0.00457 µM): 1.02 ± 0.041
- relative viability ([9]; 0.01372 µM): 1.03 ± 0.02
- relative viability ([9]; 0.04115 µM): 1.01 ± 0.0077
- relative viability ([9]; 0.1235 µM): 1.01 ± 0.03
- relative viability ([9]; 0.3704 µM): 1.04 ± 0.02
- relative viability ([9]; 1.111 µM): 0.9847 ± 0.0047
- relative viability ([9]; 3.333 µM): 0.994 ± 0.047
- relative viability ([9]; 10 µM): 0.86 ± 0.042
- relative viability ([10]; 0.00017 µM): 1.03 ± 0.034
- relative viability ([10]; 0.00051 µM): 0.979 ± 0.052
- relative viability ([10]; 0.00152 µM): 1.01 ± 0.059
- relative viability ([10]; 0.00457 µM): 1.02 ± 0.065
- relative viability ([10]; 0.01372 µM): 1.01 ± 0.062
- relative viability ([10]; 0.04115 µM): 1.01 ± 0.043
- relative viability ([10]; 0.1235 µM): 1.02 ± 0.044
- relative viability ([10]; 0.3704 µM): 1.06 ± 0.086
- relative viability ([10]; 1.111 µM): 1.13 ± 0.024
- relative viability ([10]; 3.333 µM): 1.11 ± 0.077
- relative viability ([10]; 10 µM): 0.83 ± 0.033
- relative viability ([11]; 0.00017 µM): 1.12 ± 0.02
- relative viability ([11]; 0.00051 µM): 1.08 ± 0.043
- relative viability ([11]; 0.00152 µM): 1.11 ± 0.034
- relative viability ([11]; 0.00457 µM): 1.08 ± 0.019
- relative viability ([11]; 0.01372 µM): 1.1 ± 0.022
- relative viability ([11]; 0.04115 µM): 1.11 ± 0.017
- relative viability ([11]; 0.1235 µM): 1.1 ± 0.038
- relative viability ([11]; 0.3704 µM): 1.11 ± 0.034
- relative viability ([11]; 1.111 µM): 1.11 ± 0.072
- relative viability ([11]; 3.333 µM): 0.99 ± 0.057
- relative viability ([11]; 10 µM): 0.7231 ± 0.0064
- relative viability ([12]; 0.00017 µM): 1.22 ± 0.055
- relative viability ([12]; 0.00051 µM): 1.21 ± 0.042
- relative viability ([12]; 0.00152 µM): 1.18 ± 0.048
- relative viability ([12]; 0.00457 µM): 1.179 ± 0.0052
- relative viability ([12]; 0.01372 µM): 1.19 ± 0.016
- relative viability ([12]; 0.04115 µM): 1.2 ± 0.035
- relative viability ([12]; 0.1235 µM): 1.2 ± 0.015
- relative viability ([12]; 0.3704 µM): 1.17 ± 0.047
- relative viability ([12]; 1.111 µM): 1.21 ± 0.031
- relative viability ([12]; 3.333 µM): 1.11 ± 0.018
- relative viability ([12]; 10 µM): 1.01 ± 0.027
